Data set [1] can be described thus: The drug is tested on Ruminococcus lactaris strain: ATCC29176 for biotransformation. The drug concentrations were measured before and after a 12-h incubation by liquid-chromatography-coupled mass spectrometry (LC–MS). To be noted: 2 µM.
For data set [2] the following is noted: akkermansia muciniphila, 12 h, 2 µM.
Description: The drug is tested on Akkermansia muciniphila strain: ATCC BAA-835 for biotransformation. The drug concentrations were measured before and after a 12-h incubation by liquid-chromatography-coupled mass spectrometry (LC–MS)
The nature of data set [3]: The drug is tested on Bacteroides uniformis strain: ATCC8492 for biotransformation. The drug concentrations were measured before and after a 12-h incubation by liquid-chromatography-coupled mass spectrometry (LC–MS). To be noted: 2 µM.
The conditions of data set [4]: bacteroides fragilis, 12 h, 2 µM.
Description: The drug is tested on Bacteroides fragilis strain: 3397 (T10) for biotransformation. The drug concentrations were measured before and after a 12-h incubation by liquid-chromatography-coupled mass spectrometry (LC–MS)
For data set [5] the following is noted: bacteroides thetaiotaomicron, 12 h, 2 µM.
Description: The drug is tested on Bacteroides thetaiotaomicron strain: VPI-5482 for biotransformation. The drug concentrations were measured before and after a 12-h incubation by liquid-chromatography-coupled mass spectrometry (LC–MS)
A short description of data set [6]: The drug is tested on Bacteroides vulgatus strain: ATCC8482 for biotransformation. The drug concentrations were measured before and after a 12-h incubation by liquid-chromatography-coupled mass spectrometry (LC–MS). To be noted: phocaeicola vulgatus, 2 µM.
Data set [7] is described as follows: The drug is tested on Bifidobacterium ruminantium strain: fecal isolate for biotransformation. The drug concentrations were measured before and after a 12-h incubation by liquid-chromatography-coupled mass spectrometry (LC–MS). To be noted: 2 µM.
Data set [8] in a line: The drug is tested on Bacteroides dorei strain: DSM17855 for biotransformation. The drug concentrations were measured before and after a 12-h incubation by liquid-chromatography-coupled mass spectrometry (LC–MS). To be noted: phocaeicola dorei, 2 µM.
For data set [9] the following is noted: anaerostipes sp., 12 h, 2 µM.
Description: The drug is tested on Anaerostipes sp. strain: fecal isolate for biotransformation. The drug concentrations were measured before and after a 12-h incubation by liquid-chromatography-coupled mass spectrometry (LC–MS)
The conditions of data set [10]: bacteroides fragilis, 12 h, 2 µM. The source holds these as a separate data set.
Description: The drug is tested on Bacteroides fragilis strain: DS-208 for biotransformation. The drug concentrations were measured before and after a 12-h incubation by liquid-chromatography-coupled mass spectrometry (LC–MS)
Data set [11] in a line: The drug is tested on Alistipes indistinctus strain: DSM22520 for biotransformation. The drug concentrations were measured before and after a 12-h incubation by liquid-chromatography-coupled mass spectrometry (LC–MS). The settings on record: 2 µM.
Data set [12] in a line: The drug is tested on Bacteroides pectinophilus strain: ATCC43243 for biotransformation. The drug concentrations were measured before and after a 12-h incubation by liquid-chromatography-coupled mass spectrometry (LC–MS). The settings on record: 2 µM.
For data set [13] the following is noted: bacteroides intestinalis, 12 h, 2 µM.
Description: The drug is tested on Bacteroides intestinalis strain: DSM17393 for biotransformation. The drug concentrations were measured before and after a 12-h incubation by liquid-chromatography-coupled mass spectrometry (LC–MS)
The nature of data set [14]: The drug is tested on Clostridium asparagiforme strain: DSM15981 for biotransformation. The drug concentrations were measured before and after a 12-h incubation by liquid-chromatography-coupled mass spectrometry (LC–MS). The format is ADME. More on the design: dose 2 uM, timepoint 0 vs 12 hours. The settings on record: enterocloster asparagiformis, 2 µM.
For data set [15] the following is noted: roseburia intestinalis, 12 h, 2 µM.
Description: The drug is tested on Roseburia intestinalis strain: L1-82 for biotransformation. The drug concentrations were measured before and after a 12-h incubation by liquid-chromatography-coupled mass spectrometry (LC–MS)
Data set [16] can be described thus: The drug is tested on Eggerthella lenta strain: ATCC25559 for biotransformation. The drug concentrations were measured before and after a 12-h incubation by liquid-chromatography-coupled mass spectrometry (LC–MS). The settings on record: 2 µM.
For data set [17] the following is noted: bacteroides eggerthii, 12 h, 2 µM.
Description: The drug is tested on Bacteroides eggerthii strain: DSM20697 for biotransformation. The drug concentrations were measured before and after a 12-h incubation by liquid-chromatography-coupled mass spectrometry (LC–MS)
The conditions of data set [18]: bacteroides thetaiotaomicron, 12 h, 2 µM. The source holds these as a separate data set.
Description: The drug is tested on Bacteroides thetaiotaomicron strain: 7330 for biotransformation. The drug concentrations were measured before and after a 12-h incubation by liquid-chromatography-coupled mass spectrometry (LC–MS)
Data set [19] can be described thus: The drug is tested on Clostridium symbiosum strain: ATCC14940 for biotransformation. The drug concentrations were measured before and after a 12-h incubation by liquid-chromatography-coupled mass spectrometry (LC–MS). The settings on record: 2 µM.
The conditions of data set [20]: segatella copri, 12 h, 2 µM.
Description: The drug is tested on Prevotella copri strain: DSM18205 for biotransformation. The drug concentrations were measured before and after a 12-h incubation by liquid-chromatography-coupled mass spectrometry (LC–MS)

As to `CC(Oc1c(Cl)cccc1Cl)C1=NCCN1` (stereo not given) [LOFEXIDINE], the “Bacterial Biotransformation” value in data set [1], in data set [2], in data set [3], in data set [4], in data set [5] and in data set [6] was “Compound metabolized” in each case. Further, the “Bacterial Biotransformation” value in data set [7] is reported as “Compound metabolized”; in [8], “Compound metabolized”; in data set [9] it was “Compound metabolized”; in data set [10], “Compound NOT metabolized”; in data set [11], “Compound metabolized”; in [12] it was “Compound metabolized”. Further, the “Bacterial Biotransformation” value in data set [13], in data set [14], in data set [15], in data set [16], in data set [17] and in data set [18] was “Compound metabolized” in each case. Also, the “Bacterial Biotransformation” value in [19] and in data set [20] was “Compound metabolized” in each case.
Regarding `CC[C@@H](CO)NC(=O)[C@@H]1C=C2c3cccc4c3c(cn4C)C[C@H]2N(C)C1.O=C(O)/C=C\C(=O)O` [METHYSERGIDE MALEATE], the “Bacterial Biotransformation” value in [1], in data set [2], in data set [3], in data set [4], in [5] and in [6] was “Compound metabolized” in each case. The “Bacterial Biotransformation” value in data set [7], in data set [8], in [9], in data set [10], in data set [11] and in data set [12] was “Compound metabolized” throughout. For the same molecule, the “Bacterial Biotransformation” value in data set [13], in [14], in [15], in data set [16], in data set [17] and in [18] was “Compound metabolized” each time. Further, the “Bacterial Biotransformation” value in data set [19] and in data set [20] was “Compound metabolized” in each case.
`CC[C@H](C)C(=O)O[C@H]1CCC=C2C=C[C@H](C)[C@H](CC[C@@H]3C[C@@H](O)CC(=O)O3)[C@H]21` [MEVASTATIN]: the “Bacterial Biotransformation” value in [1], in data set [2], in data set [3], in [4], in data set [5] and in data set [6] was “Compound metabolized” in each case. Also, the “Bacterial Biotransformation” value in [7], in data set [8], in data set [9], in data set [10], in data set [11] and in [12] was “Compound metabolized” throughout. The “Bacterial Biotransformation” value in data set [13], in data set [14], in [15], in [16], in data set [17] and in [18] was “Compound metabolized” throughout. Moreover, the “Bacterial Biotransformation” value in data set [19] and in data set [20] was “Compound metabolized” each time.
With `COc1c(C)c2c(c(O)c1C/C=C(\C)CCC(=O)OCCN1CCOCC1)C(=O)OC2` [MYCOPHENOLATE MOFETIL], the “Bacterial Biotransformation” value in data set [1], in data set [2], in data set [3], in data set [4], in data set [5] and in data set [6] was “Compound metabolized” in each case. For the same molecule, the “Bacterial Biotransformation” value in data set [7], in data set [8], in [9], in data set [10], in data set [11] and in [12] was “Compound metabolized” throughout. Further, the “Bacterial Biotransformation” value in [13], in data set [14], in [15], in data set [16], in data set [17] and in data set [18] was “Compound metabolized” in each case. The “Bacterial Biotransformation” value in data set [19] and in [20] was “Compound metabolized” in each case.
As for `CCOC(=O)C1=C(C)NC(C)=C(C(=O)OC)C1c1cccc([N+](=O)[O-])c1` (stereo not given) [NITRENDIPINE], the “Bacterial Biotransformation” value in data set [1], in data set [2], in data set [3], in [4], in data set [5] and in data set [6] was “Compound metabolized” throughout. In addition, the “Bacterial Biotransformation” value in [7], in data set [8], in [9], in [10], in data set [11] and in data set [12] was “Compound metabolized” in each case. Moreover, the “Bacterial Biotransformation” value in data set [13], in data set [14], in data set [15], in data set [16], in data set [17] and in data set [18] was “Compound metabolized” in each case. Besides, the “Bacterial Biotransformation” value in data set [19] and in data set [20] was “Compound metabolized” each time.
Regarding `CNC(=C[N+](=O)[O-])NCCSCc1csc(CN(C)C)n1` [NIZATIDINE], the “Bacterial Biotransformation” value in data set [1] is “Compound metabolized”; in data set [2], “Compound NOT metabolized”; in [3], “Compound NOT metabolized”; in data set [4] it was “Compound NOT metabolized”; in data set [5], “Compound NOT metabolized”; in data set [6] it was “Compound metabolized”. In addition, the “Bacterial Biotransformation” value in data set [7], in data set [8], in [9], in data set [10], in data set [11] and in data set [12] was “Compound metabolized” in each case. The “Bacterial Biotransformation” value is recorded as “Compound metabolized” in [13]; “Compound metabolized” in data set [14]; “Compound NOT metabolized” in data set [15]; “Compound NOT metabolized” in data set [16]; “Compound metabolized” in [17]; “Compound metabolized” in data set [18]. In addition, the “Bacterial Biotransformation” value in data set [19] and in data set [20] was “Compound metabolized” in each case.

For the origin of these results see ChEMBL document CHEMBL5303573, “Mapping human microbiome drug metabolism by gut bacteria and their genes” (Nature, 2019).
